Legend:
human androgen receptor = human androgen receptor (Homo sapiens (Human), UniProt P10275); test: Assay B: human androgen receptor luciferase reporter assay (Indigo Biosciences); type: cell-based; conditions: for Selectivity Assay B/Assay A: ratio IC50 androgen receptor / IC50 IDO1
Description: Assay B. In Vitro Testing of Androgen Receptor Potency:
The human androgen receptor (AR) assay was run using Product #IB03001 from Indigo Biosciences. The cell line provided in this kit carries a reporter gene, induced upon AR stimulation. This reporter gene is cDNA encoding for beetle luciferase, a 62 kD protein originating from the North American firefly (Photinus pyralis). This luciferase catalyzes the mono-oxidation of D-luciferin yielding oxyluciferin, adenosine monophosphate, pyrophosphate, CO2, and photon emission. The luminescence intensity of the reaction is quantified using a luminometer.
To run the assay, the cells are thawed by adding pre-warmed cell recovery medium to each tube, then placed in a 37° C. water bath. 30000 viable cells in 200 μl are plated (collagen coated plates) and incubated at 37° C., ≥85% humidity, 5% CO2 for 24 hours. Media is replaced with compound screening medium. Cells are then challenged with 125 pM (EC80) 6a-Fl Testosterone and compounds are applied in half logarithmic dilutions from 10 μM to 10 nM. Assay plates are then incubated at 37° C., ≥85% humidity, 5% CO2 for 22-24 hours. Media is replaced with luciferase detection reagent and allowed 5 minutes to equilibrate prior to luminescence quantification.
Data Analysis consisted of calculating percentage of control between 100% (Negative control:6a-Fl Testosterone) and 0 (positive control: no 6a-FL Testosterone). Fitting of normalized values was made 4-Parameter sigmoidal binding curve (Log[conc]) vs. signal.

human hepatocytes = test: Assay D: metabolic stability in human hepatocytes; type: in vitro ADME
Description: Assay D. Assessment of Metabolic Stability in Human Hepatocytes
The metabolic degradation of the test compound is assayed in a hepatocyte suspension. After recovery from cryopreservation, human hepatocytes are incubated in Dulbecco's modified eagle medium supplemented with 3.5 μg glucagon/500 mL, 2.5 mg insulin/500 mL and 3.75 mg/500 mL hydrocortisone) containing 5% or 50% human serum or in absence of serum.
Following a 30 min preincubation in a cell culture incubator (37° C., 10% CO2), 5 μl of test compound solution (80 μM; derived from a 2 mM DMSO stock solution by dilution 1:25 with medium) are added into 395 μl hepatocyte suspension, resulting in a final cell density of 1 Mio cells/mL, a final test compound concentration of 1 μM, and a final DMSO concentration of 0.05%.
The cells are incubated for six hours (incubator, orbital shaker) and samples (25 μl) are removed from the incubation after 0, 0.5, 1, 2, 4 and 6 hours. Samples are transferred into acetonitrile and pelleted by centrifugation (5 min). The supernatant is transferred to a new 96-deepwell plate, evaporated under nitrogen and resuspended prior to analysis of decline of parent compound by HPLC-MS/MS.
CLint is calculated as follows: CL_INTRINSIC=k/CD×1000/60 k: slope of the regression line for parent decline [h^−1], CD: cell density of vital cells [10e6 cells/mL],
The calculated in vitro hepatic intrinsic clearance is scaled up to the intrinsic in vivo hepatic Clearance and used to predict hepatic in vivo blood clearance (CL) by the use of a liver model (well stirred model): CL_INTRINSIC_INVIVO [ml/min/kg]=(CL_INTRINSIC [μL/min/10e6 cells]×hepatocellularity [10e6 cells/g liver]×liver factor [g/kg bodyweight])/1000 CL[ml/min/kg]=CL_INTRINSIC_INVIVO [ml/min/kg]×hepatic blood flow [ml/min/kg]/(CL_INTRINSIC_INVIVO[ml/min/kg]+hepatic blood flow [ml/min/kg])
Results are expressed as percentage of hepatic blood flow: QH[%]=CL[ml/min/kg]/hepatic blood flow [ml/min/kg])
Hepatocellularity, human: 120×10e6 cells/g liver
Liver factor, human: 25.7 g/kg bodyweight
Blood flow, human: 20.7 ml/(min×kg)

MDR1 (P-gp) = MDR1 (P-gp) (Homo sapiens (Human), UniProt P08183); test: Assay E: MDCK assay MDR-1 (P-gp); type: in vitro ADME; conditions: for efflux ratio at 2 h, 10 μM: human, MDCK-MDR1, pH 7.4, Table 7, final test concentration 10 μM, read-out: MDCK-MDR1 efflux ratio (Assay E)
Chain of MDR1 (P-gp) (P08183 whole entry): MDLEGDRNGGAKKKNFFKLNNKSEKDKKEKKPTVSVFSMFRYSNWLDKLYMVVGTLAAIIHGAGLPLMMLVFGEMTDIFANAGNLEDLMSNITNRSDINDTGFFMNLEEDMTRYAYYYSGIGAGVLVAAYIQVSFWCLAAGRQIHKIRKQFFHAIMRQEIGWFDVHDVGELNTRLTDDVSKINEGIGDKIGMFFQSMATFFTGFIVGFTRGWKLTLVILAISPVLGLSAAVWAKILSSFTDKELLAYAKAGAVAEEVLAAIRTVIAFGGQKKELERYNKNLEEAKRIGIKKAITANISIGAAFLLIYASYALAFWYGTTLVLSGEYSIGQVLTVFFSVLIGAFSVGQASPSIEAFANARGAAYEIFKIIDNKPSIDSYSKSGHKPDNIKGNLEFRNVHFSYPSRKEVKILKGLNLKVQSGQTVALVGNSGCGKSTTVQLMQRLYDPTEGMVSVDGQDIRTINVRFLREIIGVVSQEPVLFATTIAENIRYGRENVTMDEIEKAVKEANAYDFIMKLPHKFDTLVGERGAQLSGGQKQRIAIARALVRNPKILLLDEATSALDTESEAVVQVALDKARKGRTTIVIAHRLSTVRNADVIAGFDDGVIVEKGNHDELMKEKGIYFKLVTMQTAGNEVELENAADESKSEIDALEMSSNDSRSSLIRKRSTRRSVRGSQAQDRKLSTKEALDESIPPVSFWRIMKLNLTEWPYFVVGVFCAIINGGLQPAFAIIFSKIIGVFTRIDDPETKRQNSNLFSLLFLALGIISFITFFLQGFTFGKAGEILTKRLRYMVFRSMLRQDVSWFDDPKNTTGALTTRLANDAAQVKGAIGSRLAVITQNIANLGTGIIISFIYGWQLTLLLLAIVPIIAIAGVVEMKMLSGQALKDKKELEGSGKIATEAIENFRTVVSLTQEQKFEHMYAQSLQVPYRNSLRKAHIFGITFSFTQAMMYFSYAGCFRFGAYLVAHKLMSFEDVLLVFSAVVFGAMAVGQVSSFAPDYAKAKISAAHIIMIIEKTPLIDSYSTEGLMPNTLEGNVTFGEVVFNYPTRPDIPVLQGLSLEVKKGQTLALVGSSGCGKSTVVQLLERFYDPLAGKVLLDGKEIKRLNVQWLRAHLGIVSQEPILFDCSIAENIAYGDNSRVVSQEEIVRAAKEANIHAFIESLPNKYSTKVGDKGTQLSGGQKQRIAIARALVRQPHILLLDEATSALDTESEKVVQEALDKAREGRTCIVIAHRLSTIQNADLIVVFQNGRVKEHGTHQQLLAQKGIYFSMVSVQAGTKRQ
Description: The MDCK assays provide information on the potential of a compound to pass the blood brain barrier. Permeability measurements across polarized, confluent MDCK-MDR1 cell monolayers grown on permeable filter supports are used as an in vitro absorption model: apparent permeability coefficients (PE) of the compounds across the MDCK-MDR1 cell monolayers are measured (pH 7.4, 37° C.) in apical-to-basal (AB) and basal-to-apical (BA) transport direction. The AB permeability (PEAB) represents drug absorption from the blood into the brain and the BA permeability (PEBA) drug efflux from the brain back into the blood via both, passive permeability as well as active transport mechanisms mediated by efflux and uptake transporters that are expressed on the MDCK-MDR1 cells, predominantly by the overexpressed human MDR1. Identical or similar permeabilities in both transport directions indicate passive permeation, vectorial permeability points to additional active transport mechanisms. Higher PEBA than PEAB (PEBA/PEAB >3) indicates the involvement of active efflux mediated by MDR1, which might compromise the goal to achieve sufficient brain exposure.
Assay E. MDCK assay MDR-1 (P-gp)
Apparent permeability coefficients (Papp) of the compounds across MDCK-MDR1 monolayers (MDCKII cells transfected with human MDR1 gene) are measured in apical-to-basal (AB) and basal-to-apical (BA) direction.
MDCK-MDR1 cells (6×10^5 cells/cm^2) are seeded onto filter inserts (Corning, Transwell, polycarbonate, 0.4 μm pore size) and cultured for 9 to 10 days. Compounds dissolved in DMSO stock solution (1-20 mM) are diluted with HTP-4 buffer (128.13 mM NaCl, 5.36 mM KCl, 1 mM MgSO4, 1.8 mM CaCl2, 4.17 mM NaHCO3, 1.19 mM Na2HPO4, 0.41 mM NaH2PO4, 15 mM HEPES, 20 mM glucose, pH 7.4) supplemented with 0.25% BSA to prepare the transport solutions, resulting in a final test concentration of 1 μM or 10 μM and a final DMSO content of 0.5%. The transport solution is applied to the apical or basolateral donor side for measuring A-B or B-A permeability, respectively. The receiver side contains HTP-4 buffer supplemented with 0.25% BSA. Samples are collected at the start and end of experiment from the donor and at various time intervals for up to 2 hours from the receiver side for concentration measurement by HPLC-MS/MS. Sampled receiver volumes are replaced with fresh receiver solution.
All data reported for Assay E were measured with a final test concentration of 10 μM.

Chain of human androgen receptor (P10275 whole entry): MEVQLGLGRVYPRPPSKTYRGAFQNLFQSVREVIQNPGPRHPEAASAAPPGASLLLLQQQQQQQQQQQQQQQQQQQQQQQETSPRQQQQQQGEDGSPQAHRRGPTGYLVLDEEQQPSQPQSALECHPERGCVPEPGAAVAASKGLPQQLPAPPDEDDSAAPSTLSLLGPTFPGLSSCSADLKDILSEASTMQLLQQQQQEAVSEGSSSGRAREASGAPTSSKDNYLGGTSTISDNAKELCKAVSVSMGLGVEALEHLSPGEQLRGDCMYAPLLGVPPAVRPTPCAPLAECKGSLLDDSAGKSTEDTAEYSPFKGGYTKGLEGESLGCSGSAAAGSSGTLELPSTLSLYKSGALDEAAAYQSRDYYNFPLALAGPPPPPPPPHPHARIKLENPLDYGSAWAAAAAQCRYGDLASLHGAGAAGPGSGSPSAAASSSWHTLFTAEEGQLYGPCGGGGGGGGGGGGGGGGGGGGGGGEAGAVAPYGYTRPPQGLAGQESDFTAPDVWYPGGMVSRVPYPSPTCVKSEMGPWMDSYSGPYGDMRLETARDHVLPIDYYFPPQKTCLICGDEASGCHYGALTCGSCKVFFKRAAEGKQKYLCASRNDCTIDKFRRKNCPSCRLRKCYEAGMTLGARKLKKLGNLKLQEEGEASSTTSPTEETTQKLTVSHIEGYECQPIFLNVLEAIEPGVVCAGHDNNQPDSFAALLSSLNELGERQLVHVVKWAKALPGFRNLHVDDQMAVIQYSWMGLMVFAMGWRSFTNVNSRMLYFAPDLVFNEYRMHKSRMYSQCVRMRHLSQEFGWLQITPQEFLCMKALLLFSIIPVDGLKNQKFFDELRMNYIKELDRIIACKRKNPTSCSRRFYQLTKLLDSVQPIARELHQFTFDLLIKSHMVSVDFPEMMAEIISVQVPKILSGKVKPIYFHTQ

Question: How did the “Selectivity Assay B/Assay A” value (human androgen receptor) turn out when CC(C)(NC(=O)c1ccc(Cl)s1)C(=O)Nc1ccc(Cl)c(F)c1 [Example 3, 2-[(5-chlorothiophen-2-yl)formamido]-N-(4-chloro-3-fluorophenyl)-2-methylpropanamide] was run?
Answer: The value was 33.

Question: What about the “metabolic stability in human hepatocytes (in words)” value (human hepatocytes) of the same compound?
Answer: The value was “metabolically stable”.

Question: And the “in vitro efflux, MDCK-MDR1 (in words)” value (MDR1 (P-gp))?
Answer: The value was “neither in vitro nor in vivo efflux”.

Question: And the efflux ratio at 2 h, 10 μM (MDR1 (P-gp))?
Answer: Its efflux ratio at 2 h, 10 μM is 0.5.

Question: With CC(C)(NC(=O)c1ccc(Cl)s1)C(=O)Nc1ccc(Br)cc1 [Example 4, 2-[(5-chlorothiophen-2-yl)formamido]-N-(4-bromophenyl)-2-methylpropanamide] as the compound, how does the IC50 (human androgen receptor; challenge with 125 pM (EC80) 6a-Fl Testosterone, mean +− standard deviation) read?
Answer: The IC50 was over 10 µM.

Question: And the “Selectivity Assay B/Assay A” value (human androgen receptor)?
Answer: Its value is over 42.

Question: And the “metabolic stability in human hepatocytes (in words)” value (human hepatocytes)?
Answer: The value was “metabolically stable”.

Question: And the “in vitro efflux, MDCK-MDR1 (in words)” value (MDR1 (P-gp))?
Answer: The value was “neither in vitro nor in vivo efflux”.

Question: And the efflux ratio at 2 h, 10 μM (MDR1 (P-gp))?
Answer: The efflux ratio at 2 h, 10 μM was 0.5.
